Here are results for 1 molecule from patent publication US20030187056A1, “Live cell procedures to identify to identify compounds modulating intracellular distribution of phosphodiesterase( pde) enzymes” (priority 2000, published 2003).

Experiment [1] deals with T1, HSPDE4A4-EGFP (Homo sapiens, UniProt P27815).
T1 construct: expressed in transfected cells
Briefly: Spot formation in CHO cells transfected with HSPDE4A4-EGFP. The format is cell-based. The following applies: for cells with spots: clonal.

The target in experiment [2] is T2, HSPDE4A1-EGFP (Homo sapiens, UniProt P27815).
T2 construct: the ca. 1.95 kb coding region of HSPDE4A1 (GenBank Acc.no. U97584) is amplified; expressed in transfected cells
The experiment is described as follows: Spot dispersal in CHO cells transfected with HSPDE4A1-EGFP. The format is cell-based. As to the method:
(§1) […] The cells are then fixed with 4% formalin buffer (pH7) for 1 hour, washed with PBS and stained with 1 μM Hoechst 33258 in PBS for 10 minutes at 25° C., then washed twice in PBS. Automated images are collected and analysed for the number of spots per cell as described in Example 2.
as §1

T2 sequence (P27815 1-647 isoform P27815-4): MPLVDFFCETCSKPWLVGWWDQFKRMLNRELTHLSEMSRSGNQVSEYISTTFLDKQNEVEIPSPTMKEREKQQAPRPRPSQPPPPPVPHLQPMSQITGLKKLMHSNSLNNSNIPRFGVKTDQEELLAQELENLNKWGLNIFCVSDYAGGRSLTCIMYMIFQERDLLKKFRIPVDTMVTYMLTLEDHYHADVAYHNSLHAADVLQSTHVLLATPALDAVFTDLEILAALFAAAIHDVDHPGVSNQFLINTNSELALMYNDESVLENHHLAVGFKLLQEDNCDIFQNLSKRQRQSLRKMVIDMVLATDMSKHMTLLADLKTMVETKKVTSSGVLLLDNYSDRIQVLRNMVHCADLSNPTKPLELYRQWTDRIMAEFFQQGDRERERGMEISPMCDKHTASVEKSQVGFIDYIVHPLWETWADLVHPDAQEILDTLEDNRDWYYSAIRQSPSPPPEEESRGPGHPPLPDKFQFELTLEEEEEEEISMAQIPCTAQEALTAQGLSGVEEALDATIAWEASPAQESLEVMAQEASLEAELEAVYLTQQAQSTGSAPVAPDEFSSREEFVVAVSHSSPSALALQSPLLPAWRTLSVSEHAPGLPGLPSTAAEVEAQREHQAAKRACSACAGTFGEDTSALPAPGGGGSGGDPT
T1 sequence (P27815 whole entry): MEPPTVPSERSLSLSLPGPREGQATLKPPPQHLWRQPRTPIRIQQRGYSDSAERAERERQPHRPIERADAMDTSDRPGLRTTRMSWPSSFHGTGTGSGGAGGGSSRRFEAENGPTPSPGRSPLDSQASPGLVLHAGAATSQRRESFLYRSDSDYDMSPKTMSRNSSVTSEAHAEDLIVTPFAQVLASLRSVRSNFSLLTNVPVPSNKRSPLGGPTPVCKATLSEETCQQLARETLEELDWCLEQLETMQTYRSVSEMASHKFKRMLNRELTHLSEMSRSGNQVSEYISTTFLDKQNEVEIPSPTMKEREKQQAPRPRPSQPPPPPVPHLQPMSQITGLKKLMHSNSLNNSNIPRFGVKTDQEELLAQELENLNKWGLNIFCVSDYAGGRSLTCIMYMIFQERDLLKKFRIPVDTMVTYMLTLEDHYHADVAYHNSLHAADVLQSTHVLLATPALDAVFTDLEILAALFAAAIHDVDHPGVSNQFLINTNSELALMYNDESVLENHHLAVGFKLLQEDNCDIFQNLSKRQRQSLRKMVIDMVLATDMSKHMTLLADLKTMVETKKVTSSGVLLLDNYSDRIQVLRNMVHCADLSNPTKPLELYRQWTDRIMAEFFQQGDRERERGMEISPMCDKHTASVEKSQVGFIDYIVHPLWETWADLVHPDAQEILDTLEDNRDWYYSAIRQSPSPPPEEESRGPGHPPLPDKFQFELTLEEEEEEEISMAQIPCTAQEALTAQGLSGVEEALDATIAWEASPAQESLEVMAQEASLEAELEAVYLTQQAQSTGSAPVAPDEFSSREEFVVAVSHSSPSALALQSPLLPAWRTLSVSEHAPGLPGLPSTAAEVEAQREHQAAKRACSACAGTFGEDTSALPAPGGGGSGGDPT

Turning to `O=c1c2cccnc2n(-c2cccc([N+](=O)[O-])c2)c(=O)n1Cc1ccncc1` [RS25344], the cells with spots entry in experiment [1] (0.03 μM RS25344, 24.5 hours) is “about 40%”; in experiment [1] (0.03 μM RS25344, 24.5 hours, listed as RS 25344) it was “approximately 40%”; in experiment [1] (1 μM RS25344, 24.5 hours), “more than 95%”. The EC50 (usually the concentration that produces a half-maximal response) is 0.017 µM in experiment [1] (clonal CHO, 23.5 hours, 4-parameter Hill fit, read-out: EC50 spot formation (spots per cell)) and 0.005 µM in experiment [2] (clonal CHO, 23.5 hours, estimated). Moreover, in experiment [1] (yes/no), the “Formation of PDE4A4 spots” value was “yes”. For the same molecule, in experiment [2] (Rolipram 2 micromolar 2 hours, others over the ranges tested), the “dispersal of PDE4A1 spots (in words)” value is listed as “reduce PDE4A1 spot numbers”. Also, the “Removal of PDE4A1 spots” value in experiment [2] (yes/no) is on record as “yes”.
